Source: US11980607B2, “Methods of treating malignant lymphoproliferative disorders” (Actuate Therapeutics Inc., priority 2018, dated 2024)

What was measured:
Granta-519 = assay: Apoptosis assay (Annexin V/PI), cell survival; assay type: cell-based; conditions: Homo sapiens; Granta-519 (MCL), 48 hours
Protocol: (§1) Cells were seeded at 5×10^5 cells/well in 24 well plates, and incubated with 9-ING-41 at indicated concentrations for 48 hours. The cells were then stained with FITC conjugated Annexin V (Life Technologies) and Propidium Iodide followed by analysis on a BD FACS Calibur flow cytometer.
(§2) The IC50S of 9-ING-41 on cell survival and proliferation was calculated using an on-line IC50 calculation tool (https://www.aatbio.com/tools/ic50-calculator/).
(§3) Given that both GSK3α and GSK3β are overexpressed in lymphoma cells, and that both enzymes are implicated in multiple signaling pathways critical for cell functions, whether GSK3α and GSK3β are functionally supporting the survival and proliferation of lymphoma cells was examined. […] The inhibitory concentrations of 9-ING-41 at half of the maximal effect (IC50) on cell survival of various lymphoma cell lines was calculated (Table 1).

Jeko = assay: Apoptosis assay (Annexin V/PI), cell survival; assay type: cell-based; conditions: Homo sapiens; Jeko (MCL), 48 hours
Protocol: as §1, §2, §3

Karpas-299 = assay: Apoptosis assay (Annexin V/PI), cell survival; assay type: cell-based; conditions: Homo sapiens; Karpas-299 (TCL), 48 hours
Protocol: as §1, §2, §3

Mino = assay: Apoptosis assay (Annexin V/PI), cell survival; assay type: cell-based; conditions: Homo sapiens; Mino (MCL), 48 hours
Protocol: as §1, §2, §3

MyLa = assay: Apoptosis assay (Annexin V/PI), cell survival; assay type: cell-based; conditions: Homo sapiens; MyLa (TCL), 48 hours
Protocol: as §1, §2, §3

OCI-LY19 = assay: Apoptosis assay (Annexin V/PI), cell survival; assay type: cell-based; conditions: Homo sapiens; OCI-LY19 (DLBCL), 48 hours
Protocol: as §1, §2, §3

OCI-LY1 = assay: Apoptosis assay (Annexin V/PI), cell survival; assay type: cell-based; conditions: Homo sapiens; OCI-LY1 (DLBCL), 48 hours
Protocol: as §1, §2, §3

OCI-Ly3 = assay: Apoptosis assay (Annexin V/PI), cell survival; assay type: cell-based; conditions: Homo sapiens; OCI-Ly3 (DLBCL), 48 hours
Protocol: as §1, §2, §3

SU-DHL6 = assay: Apoptosis assay (Annexin V/PI), cell survival; assay type: cell-based; conditions: Homo sapiens, SU-DHL-6; SU-DHL6 (DLBCL), 48 hours
Protocol: as §1, §2, §3

SeAx = assay: Apoptosis assay (Annexin V/PI), cell survival; assay type: cell-based; conditions: Homo sapiens; SeAx (TCL), 48 hours
Protocol: as §1, §2, §3

[1] = test system: phospho-c-MYC in KPUM-UH1 cells; assay: Western blot analysis of c-MYC; assay type: cell-based; conditions: KPUM-UH1 double-hit lymphoma cell line
Protocol: c-MYC levels were analyzed in KPUM-UH1 cells via western blot for 9-ING-41 alone and the combination of 9ING-41 with either Venetoclax or BAY-1143572. Around 10 million cells were spun down at 200 rcf for 5 minutes and rinsed once with PBS before lysing in 50 μl of Millipore Milliplex MAP lysis buffer supplemented with protease and phosphatase inhibitors (Roche). Protein denatured in 4× sample buffer supplemented with β-mercaptoethanol (Bio-Rad) was loaded per well. Bio-Rad stain-free Criterion 4-20% precast gels were used. After running the gel at 140 volts for 90 minutes, Bio-Rad gel imager was used to activate the stain-free technology to visualize the total protein levels loaded in the gel. A nitrocellulose turbo-transfer pack and system (Bio-Rad) was then used to transfer the proteins to the membrane, and 5% w/v dry milk in Tris-buffered saline-0.1% Tween 20 (TBS-T) was used to block the membranes for 1 hour. Membranes were then incubated with the primary antibody diluted in 5% BSA in TBS-T overnight. Membranes were then rinsed in TBS-T 3 times (one 15 minute wash and two 5 minutes washes) and then incubated with the corresponding secondary antibody-conjugated with HRP for 1 hour and rinsed with TBS-T as before. […] Quantification of the band intensities were performed using Image J software (NIH).

[2] = test system: purified normal unstimulated T lymphocytes or peripheral blood mononuclear cells; assay: Apoptosis assay in normal cells; assay type: cell-based, human; conditions: even at 10.0 μM 9-ING-41
Protocol: Unstimulated peripheral blood B- and T-lymphocytes isolated from a healthy donor were used as normal control. Pro-apoptotic effect of the GSK3 inhibitor 9-ING-41 in various MCL and TCL lines (A) and DLBCL lines (B). (C) Cell proliferation profile of various lymphoma cell lines upon treatment with 9-ING-41. Results (A-C) are from 3 independent experiments.
as §1, §3

[3] = Xenograft mice, 20 mg/kg intravenous, within 30 minutes; cited from earlier work

With Cn1cc(C2=C(c3coc4ccc(F)cc34)C(=O)NC2=O)c2cc3c(cc21)OCO3 [9-ING-41, 3-(5-Fluorobenzofuran-3-yl)-4-(5-methyl-5H-[1,3]dioxolo[4,5-f]indol-7-yl)pyrrole-2,5-dione] the IC50 (Granta-519) was 0.77 µM, the IC50 (Jeko) was 1.28 µM and the IC50 (Karpas-299) was 3.34 µM. For the same molecule, the IC50 (Mino) was 0.55 µM, the IC50 (MyLa) was 0.69 µM and the IC50 (OCI-LY19) was 2.21 µM. It also gave an IC50 (OCI-LY1) of 3.05 µM, an IC50 (OCI-Ly3) of 3.76 µM and an IC50 (SU-DHL6) of 1.58 µM. For the same molecule, the IC50 (SeAx) was 1.6 µM, the “Effect on phospho-c-MYC” value [1] was “phospho-c-MYC is modified” and the “Apoptosis in normal cells” value [2] was “no significant apoptosis”. The “9-ING-41 concentration in plasma” value [3] was “around 8 μM” and the “9-ING-41 concentration in the brain” value [3] was “around 40 μM”.
